Measurements taken from US9670374B2, “Water-based ink for inkjet printing” (KAO CORPORATION, priority 2013, dated 2017).
Like-named read-outs stand apart in the source and are kept apart here.

Experiment: Measurement of 1-octanol/water partition coefficient (shake flask method)
Type: physicochemical
Description: The 1-octanol/water partition coefficient of the diethylene glycol isopropyl ether was measured by a shake flask method prescribed in JIS Z7260-107.
First, 10 g of ion-exchanged water and 10 g of 1-octanol were charged into a 50 mL separating funnel, and shaken at 25° C. to establish an equilibrium therebetween. Then, 1 g of diethylene glycol isopropyl ether was charged into the separating funnel, and the contents of the separating funnel were intimately shaken and subjected to centrifugal separation to separate the mixture into a 1-octanol phase and a water phase. The amounts of the diethylene glycol isopropyl ether dissolved in the respective phases were quantitatively determined by gas chromatography, thereby obtaining a partition coefficient of the diethylene glycol isopropyl ether between the two phases. The log P vale was determined as a common logarithm of the partition coefficient.
The same measurement procedure as in the above item (i) was repeated except for using a solvent to be measured in place of the diethylene glycol isopropyl ether (c1), thereby obtaining a 1-octanol/water partition coefficient of the solvent.

[1] = shake flask method JIS Z7260-107, 25° C., log P as common logarithm
[2] = shake flask method JIS Z7260-107, 25° C., log P as common logarithm, read-out: 1-octanol/water partition coefficient
[3] = 1-octanol/water, shake flask method JIS Z7260-107, 25° C., log P as common logarithm, read-out: 1-octanol/water partition coefficient

With `CC(O)CO` (stereo not shown) [propylene glycol] the 1-octanol/water partition coefficient was “Propylene glycol (−0.95)” and the logP was -0.95.

For `OCCOCCO` [diethylene glycol], the 1-octanol/water partition coefficient [1] was “Diethylene glycol (−1.39)” and the logP [2] was -1.39.

For `COCCOCCO` [diethylene glycol monomethyl ether, Diethylene glycol monomethyl ether], the 1-octanol/water partition coefficient [1] was “DEGME (−0.85)” and the logP [2] was -0.85.

Work on `O=C1CCCN1` [2-pyrrolidone] yielded a logP of -0.63.

For `CC(C)OCCOCCO` [diethylene glycol isopropyl ether], the logP [3] was 0.04 and the 1-octanol/water partition coefficient [1] was “DEGPE (0.04)*^1”.

With `CCOCCOCCO` [diethylene glycol monoethyl ether, Diethylene glycol monoethyl ether] the logP [3] was -0.31 and the 1-octanol/water partition coefficient [1] was “DEGEE (−0.31)”.

With `CCCCOCCOCCO` [Diethylene glycol monobutyl ether] the 1-octanol/water partition coefficient was “ether (0.7)”.

With `OCCOCCOCCO` [triethylene glycol] the 1-octanol/water partition coefficient was “Triethylene glycol (−1.45)” and the logP was -1.45.

In the case of `OCC(O)CO` [glycerol], the 1-octanol/water partition coefficient is reported as “Glycerol (≧−1.5)” and the logP is reported as -1.5.
